In test [1] the target is A. gallica protoilludene synthase (Armillaria gallica, UniProt P0DL13). It counts as biochemical.
Test [2] concerns the target T1, Pro1 (A. gallica protoilludene synthase) expressed in Escherichia coli (Armillaria gallica, UniProt P0DL13).
T1 construct: A. gallica protoilludene synthase (clone Pro1); made in house; host or cells: E. coli BL21 (DE3) CodonPlus, vector pDEST14; crude soluble lysate
Kind of test: Sesquiterpene synthase activity of crude soluble protein extract of E. coli expressing Pro1 (radio-TLC). The format is biochemical. Particulars: same Pro1 lysate incubated with diterpene synthase substrate. How it is done:
Escherichia coli protein extracts were prepared by resolving the cell pellet from cultivation in the described extraction puffer and cells were lysed under constant cooling by two rounds of Microfluidizer treatment.
Part of the organic extract was then spotted onto silica-gel TLC plates and separated using 9:1 cyclohexane:ethyl acetate as the solvent, prior to analysis in a radio-TLC reader (Raytest, Straubenhardt). For the determination of KM values the reactions were stopped by quenching with 100 mM EDTA (final concentration) followed by extraction with n-pentane, purification by silica gel column chromatography and quantitation by liquid scintillation counting. All kinetic activity assays were performed in triplicate. Mass spectrometry analysis of solvent extracts was performed on a QP2010S quadrupole mass spectrometer (Shimadzu) equipped with an Rxi™-5 ms (0.25 mm ID, 30 m length) column (Restek) using the following temperature program: 80° C. for 20 min, followed by heating the column at an rate of 15° C./min to 300° C. with a final constant temperature of 300° C. for 4 min. Fragmentation was achieved by electric ionization at […].
Where cDNA sequencing identified potential terpene synthase clones, the corresponding pENTRY vectors were used in LR recombination reactions involving the pDEST14 destination vector. […]

For `[Cl][Mn][Cl]` [MnCl2], the “fall of protoilludene synthase activity” value in test [1] (5 mM MgCl2 replaced with MnCl2, relative to highest activity with MgCl2) is 75%. In the case of `CCO` [ethanol], in test [1], the “effect on enzyme activity” value is given as “dramatic reduction in activity”.

For `CC(C)=CCC/C(C)=C/CC/C(C)=C/CC/C(C)=C/COP(=O)(O)OP(=O)(O)O` [gernaylgeranyl diphosphate, geranylgeranyl diphosphate], the “substrate converted into less polar product” value in test [2] is recorded as less than 1%.
